# Assay results published in article PMC9424909, “Rutin alleviated acrolein-induced cytotoxicity in Caco-2 and GES-1 cells by forming a cyclic hemiacetal product” (Frontiers in Nutrition, 2022).
# Values joined by “and” are separate entries in the source; they are usually repeats but may differ in a detail not shown here. Equal values may be shown once. Read-outs that look alike come from different tables or passages of the source.
# Assays:
# [1] = parameters: method as in PMID 19743801; details: simulated physiological conditions ref 21; cited from earlier work
# [2] = in vitro simulated oral, gastric and intestinal digestion of RAC (HPLC); type: in vitro ADME
# Experimental: The simulated oral, gastric, and intestinal digestion experiments of RAC were carried out according to Mamone et al. ([39]) with minor adjustments. One milliliter of RAC (1 mg/mL) was mixed with 4 mL SSF and stirred at 170 rpm for 2 min in lightproof condition to mimic the oral phase digestion. Based on the oral stage, 10 mL of SGF was added and reacted for another 2 h under the same condition to imitate the gastric phase digestion. To investigate the intestinal phase digestion, 20 mL of SIF was further added, and the mixture was stirred for another 2 h after simulated gastric digestion. For each stage, the same volume of deionized water was used in place of the corresponding digestive fluid as the control. At the end of each stage, 0.8 mL of the mixture was withdrawn and diluted with MeOH to 1.0 mL for HPLC analysis.
# The standard curve of RAC was prepared as follows: one milligram of RAC was dissolved with MeOH to a final concentration of 1 mg/mL. The above solution was further used to prepare a series of RAC concentrations at 0.02, 0.04, 0.08, 0.2, and 1.0 mg/mL, respectively. The HPLC conditions for the determination of the content of RAC in the digestion mixture and the preparation of the standard curve of RAC were the same as those for the analysis of RAC, except that the detection wavelength was at 358 nm.
# [3] = cell survival, CCK-8 assay; type: cell-based, human; details: human; for viability at 24 h, 140 µM: incubation 24 h, read-out: cell viability (viable cell number); for IC50 at 48 h: read-out: IC50 (cytotoxicity)
# Experimental: (§1) The Caco-2 cell line and GES-1 cell line were obtained from iCell Bioscience (Shanghai, China). As described by Chai et al. ([40]) with a bit modification, the Caco-2 cells were cultured within a medium composed of DMEM supplemented with 1% (v/v) NEAA, 10% (v/v) FBS, and penicillin and streptomycin (100 U/mL). GES-1 cells were cultivated according to Xu et al. ([41]) with slight modifications as follows: DMEM medium including 1% (v/v) NEAA, 10% (v/v) FBS, and penicillin and streptomycin (100 U/mL). Cells were all maintained in a humidified incubator containing 5% CO2 and 95% air at 37°C.
# (§2) The effects of ACR and RAC on cell survival (both Caco-2 and GES-1 cells) were measured by the CCK-8 assay ([41]). Briefly, cells (1 × 10^4 cells/well) were seeded into a 96-well plate and cultivated overnight. […] After cells were rinsed twice with PBS and resuspended in 100 μL of DMEM supplemented with 10% FBS, 10 μL of CCK-8 solution was added into each well and the plate was maintained for 1 h in the incubator. The plate was read at 450 nm on a microplate reader (BioTek, Epoch 2, USA), and all experiments were performed thrice. Cell viability was expressed as a percentage of the control group as shown below:
# (§3) Cell viability (%) = A sample/A control × 100%
# (§4) Where A sample was the absorbance (Abs) of the cells incubated with different concentrations of sample solutions, and A control was the Abs of the cells incubated without sample solution.
# [4] = system: Caco-2 cells; experiment: cell survival, CCK-8 assay; type: cell-based, human; details: Caco-2
# Experimental: as §1, §2, §3, §4
# [5] = system: GES-1 cells; experiment: cell survival, CCK-8 assay; type: cell-based, human; details: GES-1
# Experimental: as §1, §2, §3, §4
# [6] = system: Caco-2 cells; experiment: apoptosis assay, Annexin-V FITC/PI flow cytometry; type: cell-based, human; details: 24 h
# Experimental: as §1
# (§5) Cell apoptosis assay was conducted in refer to Abas et al. ([42]) with modifications. In short, cells at a density of 1 × 10^4 cells/well were seeded in 96-well plates and incubated overnight, followed by exposure to different concentrations of ACR and RAC for another 24 h. After that, cells were rinsed twice with PBS, resuspended in 200 μL of Annexin-binding buffer, and finally stained with Annexin-V FITC and PI (5 μL each) for 10 min at 37°C in darkness. After adding 400 μL of Annexin-binding buffer, the signal intensity was measured using a FACSCalibur (Becton Dickinson, CA, USA) flow cytometry within 1 h, and data was analyzed with FlowJo software (Ashland, OR, USA).
# [7] = system: GES-1 cells; experiment: apoptosis assay, Annexin-V FITC/PI flow cytometry; type: cell-based, human; details: GES-1, 60 μM
# Experimental: as §1, §5
# [8] = system: Caco-2 cells; experiment: JC-1 staining, mitochondrial membrane potential (MMP); type: cell-based, human; details: 24 h
# Experimental: as §1
# (§6) After incubation with different concentrations of samples, the changes of MMP in Caco-2 and GES-1 cells were measured in accordance with Liu et al., with slight modifications ([43]). In brief, cells (1 × 10^4 cells/well) were exposed to different concentrations of ACR and RAC for 24 h, respectively. Then 500 μL of JC-1 staining solution was added into each well and the plate was further incubated at 37°C for 15 min. Cells were then rinsed twice with 1 mL of staining buffer and resuspended with 500 μL of staining buffer prior to MMP determination in the flow cytometry.
# [9] = system: GES-1 cells; experiment: as above; type: cell-based, human; details: 24 h
# Experimental: as §1, §6
# [10] = incubating with equal concentrations of ACR for 12 h at 37°C ref 25; cited from earlier work
smiles,measurement,setting,value
O=C(CCc1ccc(O)cc1)c1c(O)cc(O)cc1O [phloretin],ACR quenched,[1],more than 99%
CC1OC(OCC2OC(Oc3c(-c4ccc(O)c(O)c4)oc4c5c(cc(O)c4c3=O)OC(O)CC5)C(O)C(O)C2O)C(O)C(O)C1O (racemic) [RAC],The amount of RAC,[2]; Initial,2.99 ± 0.01 mg
same,Decrease of RAC,[2]; SGF 30 min (gastric),16.39%
same,The amount of RAC,[2]; SGF 30 min (gastric),2.50 ± 0.06 mg and 2.50 ± 0.06 a mg
same,Decrease of RAC,[2]; SGF 60 min (gastric),16.05%
same,The amount of RAC,[2]; SGF 60 min (gastric),2.51 ± 0.04 a mg
same,The content of RAC,[2]; SGF 60 min (gastric),0.167 ± 0.0028 mg/mL
same,Decrease of RAC,[2]; SGF 90 min (gastric),21.07%
same,The amount of RAC,[2]; SGF 90 min (gastric),2.36 ± 0.04 b mg
same,The content of RAC,[2]; SGF 90 min (gastric),0.157 ± 0.0029 mg/mL
same,Decrease of RAC,[2]; SGF 120 min (gastric),24.41%
same,The amount of RAC,[2]; SGF 120 min (gastric),2.26 ± 0.03 b mg
same,Decrease of RAC,[2]; SIF 30 min (intestinal),13.38%
same,The amount of RAC,[2]; SIF 30 min (intestinal),2.59 ± 0.01 a mg
same,The content of RAC,[2]; SIF 30 min (intestinal),0.074 ± 0.0002 mg/mL
same,Decrease of RAC,[2]; SIF 60 min (intestinal),14.72%
same,The amount of RAC,[2]; SIF 60 min (intestinal),2.55 ± 0.01 b mg
same,The content of RAC,[2]; SIF 60 min (intestinal),0.073 ± 0.0002 mg/mL
same,Decrease of RAC,[2]; SIF 90 min (intestinal),14.38%
same,The amount of RAC,[2]; SIF 90 min (intestinal),2.56 ± 0.01 b mg
same,The content of RAC,[2]; SIF 90 min (intestinal),0.073 ± 0.0002 mg/mL
same,Decrease of RAC,[2]; SIF 120 min (intestinal),16.39%
same,The amount of RAC,[2]; SIF 120 min (intestinal),2.50 ± 0.01 mg and 2.50 ± 0.01 c mg
same,The content of RAC,[2]; SIF 120 min (intestinal),0.072 ± 0.0004 mg/mL
same,Decrease of RAC,[2]; SSF 2 min (oral),0.33%
same,The amount of RAC,[2]; SSF 2 min (oral),2.98 ± 0.01 mg
same,The content of RAC,[2]; SSF 2 min (oral),0.595 ± 0.0018 mg/mL
same,"viability at 24 h, 140 µM","[3]; Caco-2 cells, Caco-2, 140 μM",> 75%
same,IC50 at 48 h,"[3]; Caco-2 cells, Caco-2, CCK-8",> 140 µM
same,"viability at 24 h, 140 µM","[3]; GES-1 cells, GES-1, 140 μM",> 75%
same,IC50 at 48 h,"[3]; GES-1 cells, GES-1, CCK-8",> 140 µM
same,"viability of RAC-treated cells, fold higher than ACR-treated cells",[4],10 fold
same,"viability of RAC-treated cells, fold higher than ACR-treated cells",[5],6.5 fold
same,apoptotic cells,"[6]; Caco-2, 20 μM",8.3%
same,apoptotic cells,"[6]; Caco-2, 60 μM",10.81%
same,"apoptotic rate, fold below the 60 μM ACR-treated group",[7],5.4 fold
same,apoptotic rate,[7]; 24 h,12.59%
same,ratio of red/green fluorescence intensity,"[8]; Caco-2, 20 μM",17.64 ± 0.69
same,ratio of red/green fluorescence intensity,"[8]; Caco-2, 40 μM",15.16 ± 0.59
same,ratio of red/green fluorescence intensity,"[8]; Caco-2, 60 μM",9.47 and 9.47 ± 0.37
same,ratio of red/green fluorescence intensity,"[9]; GES-1, 20 μM",13.32 ± 0.43
same,ratio of red/green fluorescence intensity,"[9]; GES-1, 40 μM",10.59 ± 0.33
same,ratio of red/green fluorescence intensity,"[9]; GES-1, 60 μM",6.72 and 6.72 ± 0.30
COc1ccc([C@@H]2CC(=O)c3c(O)cc(O)cc3O2)cc1O [hesperetin],ACR eliminated,[10],94.87%
